In patent US20220267310A1, “QUINAZOLINE AND CINNOLINE DERIVATIVES AS DNA-PK INHIBITOR” (MEDSHINE DISCOVERY INC., priority 2019, published 2022):
Values belong to the compound of their own block, whether it stands above or below them.

Experiments:
[1] = molecular target: T1, PI3K (p110σ/p85α) (Homo sapiens, UniProt O00329); test: PI3K (p110σ/p85α) kinase inhibitory activity (HTRF); assay type: biochemical
T1 construct: Eurofins Pharma Discovery Service (contract assay)

[2] = molecular target: T2, PI3K (p110α/p85α) (Homo sapiens, UniProt P42336); test: PI3K (p110α/p85α) kinase inhibitory activity (HTRF); assay type: biochemical
T2 construct: Eurofins Pharma Discovery Service (contract assay)
T2 sequence (P42336 whole entry, species assumed): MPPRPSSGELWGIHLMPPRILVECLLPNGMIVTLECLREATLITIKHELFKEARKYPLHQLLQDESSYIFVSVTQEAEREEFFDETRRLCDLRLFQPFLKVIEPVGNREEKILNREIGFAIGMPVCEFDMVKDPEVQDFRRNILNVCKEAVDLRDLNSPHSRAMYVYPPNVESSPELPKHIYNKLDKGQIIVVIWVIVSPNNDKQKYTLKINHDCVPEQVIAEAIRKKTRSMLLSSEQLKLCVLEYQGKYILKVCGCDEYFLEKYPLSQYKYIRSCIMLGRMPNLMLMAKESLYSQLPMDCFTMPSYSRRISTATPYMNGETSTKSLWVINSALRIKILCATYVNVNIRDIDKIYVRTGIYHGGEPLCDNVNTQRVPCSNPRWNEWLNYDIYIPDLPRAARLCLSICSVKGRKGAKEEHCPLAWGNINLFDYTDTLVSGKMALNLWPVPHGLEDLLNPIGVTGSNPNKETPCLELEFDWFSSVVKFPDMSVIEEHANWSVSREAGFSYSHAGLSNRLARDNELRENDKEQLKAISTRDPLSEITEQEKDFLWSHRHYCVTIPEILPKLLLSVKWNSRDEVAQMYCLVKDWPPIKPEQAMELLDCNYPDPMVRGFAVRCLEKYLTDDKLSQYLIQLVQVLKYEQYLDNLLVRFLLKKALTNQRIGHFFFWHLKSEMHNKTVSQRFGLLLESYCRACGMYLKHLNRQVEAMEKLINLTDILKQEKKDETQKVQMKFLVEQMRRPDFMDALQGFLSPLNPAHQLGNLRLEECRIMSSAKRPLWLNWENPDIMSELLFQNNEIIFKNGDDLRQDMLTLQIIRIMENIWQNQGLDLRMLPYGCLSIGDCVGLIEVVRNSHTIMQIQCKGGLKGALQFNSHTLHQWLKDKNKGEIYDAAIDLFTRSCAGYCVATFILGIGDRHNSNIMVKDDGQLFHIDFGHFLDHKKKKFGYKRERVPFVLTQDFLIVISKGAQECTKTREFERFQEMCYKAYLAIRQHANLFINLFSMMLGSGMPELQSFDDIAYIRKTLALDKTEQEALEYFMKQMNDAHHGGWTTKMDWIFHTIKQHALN
T2 sequence (P27986 whole entry partner, species assumed): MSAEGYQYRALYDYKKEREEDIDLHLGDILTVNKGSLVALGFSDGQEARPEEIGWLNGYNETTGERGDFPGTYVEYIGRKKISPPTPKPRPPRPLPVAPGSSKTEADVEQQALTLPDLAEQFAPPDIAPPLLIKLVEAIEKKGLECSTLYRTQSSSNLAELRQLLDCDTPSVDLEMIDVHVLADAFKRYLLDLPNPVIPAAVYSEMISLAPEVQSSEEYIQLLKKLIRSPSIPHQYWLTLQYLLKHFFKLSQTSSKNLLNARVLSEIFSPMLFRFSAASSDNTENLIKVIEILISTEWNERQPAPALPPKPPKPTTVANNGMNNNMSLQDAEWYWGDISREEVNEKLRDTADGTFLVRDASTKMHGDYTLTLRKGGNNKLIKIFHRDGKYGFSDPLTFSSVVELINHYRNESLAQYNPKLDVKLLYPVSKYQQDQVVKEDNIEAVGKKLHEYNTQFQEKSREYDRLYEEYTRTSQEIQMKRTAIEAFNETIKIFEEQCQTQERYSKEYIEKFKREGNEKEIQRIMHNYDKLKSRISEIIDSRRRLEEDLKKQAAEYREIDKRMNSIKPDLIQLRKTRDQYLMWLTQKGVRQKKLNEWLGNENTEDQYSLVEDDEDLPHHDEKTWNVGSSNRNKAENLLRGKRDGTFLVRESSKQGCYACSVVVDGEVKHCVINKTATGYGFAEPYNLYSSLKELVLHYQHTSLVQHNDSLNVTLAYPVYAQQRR
Experimental: (§1) This experiment was tested at Eurofins Pharma Discovery Service, Reaction Biology Corp. (RBC)
(§2) […] DNA-PK: Mg/ATP; GST-cMyc-p53; EDTA; Ser15 antibody; ATP: 10 μM; biotinylated phosphatidylinositol-3,4,5-triphosphate; GST label GRP1 PH domain; streptavidin and phycocyanin; europium-labelled monoclonal antibody against GST.
PI3K (p110α/p85α) was incubated in a determination buffer containing phosphatidylinositol 4,5-diphosphate and Mg/ATP (density as required). The reaction was initiated by adding an ATP solution. After incubating at room temperature for 30 min, a termination solution containing EDTA and biotinylated phosphatidylinositol-3,4,5-triphosphate was added to terminate the reaction. Finally, a detection buffer (containing labeled anti-GST monoclonal antibody, PH domain of GRP1 with GST label and streptavidin and phycyanin and […]) was added. Then, the board was read in time-resolved fluorescence mode, and an HTRF signal was measured according to the formula HTRF=10000×(Em665 nm/Em620 nm).

[3] = molecular target: T3, DNA-PK (h) (Homo sapiens, UniProt P78527); test: DNA-PK kinase inhibitory activity (HTRF, Eurofins); assay type: biochemical; conditions: ATP: 10 μM
T3 construct: Eurofins Pharma Discovery Service (contract assay)
Experimental: as §1, §2
DNA-PK (h) was incubated in a determination buffer containing 50 nM GST-cMyc-p53 and Mg/ATP (density as required). The reaction was initiated by adding a mixture of Mg/ATP. After incubating at room temperature for 30 min, a termination solution containing EDTA was added to terminate the reaction. Finally, a detection buffer (containing labeled anti-GST monoclonal antibody and europium-labeled anti-phosphate Ser15 antibody against phosphorylated p53) was added. Then, the board was read in time-resolved fluorescence mode, and a Homogeneous Time Resolved Fluorescence (HTRF) signal was measured according to the formula HTRF=10000×(Em665 nm/Em620 nm).

[4] = Pharmacokinetic evaluation in mice, IV and PO; assay type: in vivo, Balb/c female mice; conditions: for Tlast / AUC(0-t) / C0 / clearance / half-life / Vd / Cmax / Tmax: mouse plasma; for bioavailability / AUC(0-t) / C0 / clearance / half-life / Vd / Cmax / Tmax: female, Balb/c; for bioavailability: plasma, mouse; for Vd: read-out: Vdss; for Tmax: read-out: Tmax
Experimental: The tested compound was mixed with 10% DMSO/50% PEG400/40% water, vortexized and ultrasonic to prepare 0.2 mg/mL or 0.4 mg/ml, approximately clarified solution, which was filtered by a microporous membrane and then standby. Balb/c female mice of 18-20 g were selected and given the candidate compound solution intravenously at a dose of 1 or 2 mg/kg. The tested compound was mixed with 10% DMSO/50% PEG400/40% water, vortexized and ultrasonic to prepare 0.2 mg/mL or 1 mg/mL approximately clarified solution, which was filtered by a microporous membrane and then standby. Balb/c female mice of 18 to 20 g were selected and given orally the candidate compound solution at a dose of 2 or 10 mg/kg. Whole blood was collected for a certain period of time, and plasma was prepared. Drug concentration was analyzed by LC-MS/MS method, and pharmacokinetic parameters were calculated by Phoenix WinNonlin software (US Pharsight company).
C0: instantaneous concentration required after intravenous injection; Cmax: the highest blood concentration after administration; Tmax: time required to reach peak concentration after administration; T1/2: the time required for blood drug concentration to decrease by half; Vdss: apparent volume of distribution, which refers to the ratio constant of drug dosage to blood concentration when a drug reaches dynamic equilibrium in vivo. Cl: clearance rate, referring to drug apparent distribution volume number removed from the body per unit time; Tlast: time of last detection point: AUC0-last: an area under a drug duration curve, referring to an area surrounded by the blood drug concentration curve on the time axis; Bioavailability: a measure of the rate and extent of drug absorption into the blood circulation, which was an important index to evaluate drug absorption degree.

[5] = tested on: human small cell lung cancer NCI-H69 xenograft tumor model; test: NCI-H69 xenograft, mono and combination with etoposide, 24-day experiment (Table 8); assay type: in vivo, BALB/c nude mice; conditions: etoposide 10 mg/kg alone
Experimental: Experiment example 3: in vivo pharmacodynamics of human small cell lung cancer NCI-H69 cell subcutaneous xenograft tumor BALB/c nude mouse model:
Experimental animals: Female BALB/c nude mice, 6-8 weeks old, weighing 15-22 grams; supplier: Shanghai Linchang Biotechnology Co., LTD. (Linchang, Shanghai)
Human small cell lung cancer NCI-H69 cells (ATCC, item number: HTB-119 and ECACC-95111733) were cultured in vitro in a culture condition of RPMI-1640 medium with 10% fetal bovine serum, 100 U/mL penicillin and 100 μg/mL streptomycin, incubated at 37° C. and 5% CO2. Conventional passage was carried out twice a week. When cell saturation was 80%-90% and the number reaches the requirement, cells were collected, counted and inoculated.
0.2 mL (10×10^6) NCI-H69 cells (with matrix glue, and volume ratio of 1:1) were subcutaneously inoculated into a right back of each mouse, and group administration was initiated when the average tumor volume reaches about 110-120 mm^3.
The tested compound was prepared as a 5 mg/mL clarified solution with 10% DMSO+50% polyethylene glycol 400+40% water as the solvent.
The experimental indicators refers to study whether tumor growth was inhibited, delayed, or cured. Tumor diameter was measured twice a week with a vernier caliper. The calculation formula of the tumor volume was V=0.5a×b^2, and a and b represent the long diameter and short diameter of the tumor, respectively.
The antitumor efficacy of the compound was evaluated by TGI (%) or relative tumor proliferation rate T/C (%). TGI (%) reflects the tumor growth inhibition rate. The calculation of TGI (%): TGI (%)=[1−(average tumor volume at the end of administration of a certain treatment group−average tumor volume at the beginning of administration of the treatment group)/(average tumor volume at the end of treatment in solvent control group−average tumor volume at the beginning of treatment in solvent control group)]×control group.
Relative tumor proliferation rate T/C (%): the calculation formula was as follows: T/C %=[…] TRTV/CRTV group (TRTV: treatment group RTV; CRTV: negative control group RTV). According to results of tumor measurement, Relative Tumor Volume (RTV) was calculated by the formula RTV=Vt/V0, where V0 was the average tumor volume measured in group administration (i.e., d0), and Vt was the average tumor volume measured in a certain single measurement. TRTV and CRTV collect data on the same day.
Statistic analysis includes an average value and a standard error (SEM) of tumor volume at each time point for each group. […] If there was no significant difference in F value, Dunnet (2-sided) method was applied to analysis. All data were analyzed using SPSS 17.0. P<0.05 was considered as having a significant difference.

T1 sequence (O00329 whole entry): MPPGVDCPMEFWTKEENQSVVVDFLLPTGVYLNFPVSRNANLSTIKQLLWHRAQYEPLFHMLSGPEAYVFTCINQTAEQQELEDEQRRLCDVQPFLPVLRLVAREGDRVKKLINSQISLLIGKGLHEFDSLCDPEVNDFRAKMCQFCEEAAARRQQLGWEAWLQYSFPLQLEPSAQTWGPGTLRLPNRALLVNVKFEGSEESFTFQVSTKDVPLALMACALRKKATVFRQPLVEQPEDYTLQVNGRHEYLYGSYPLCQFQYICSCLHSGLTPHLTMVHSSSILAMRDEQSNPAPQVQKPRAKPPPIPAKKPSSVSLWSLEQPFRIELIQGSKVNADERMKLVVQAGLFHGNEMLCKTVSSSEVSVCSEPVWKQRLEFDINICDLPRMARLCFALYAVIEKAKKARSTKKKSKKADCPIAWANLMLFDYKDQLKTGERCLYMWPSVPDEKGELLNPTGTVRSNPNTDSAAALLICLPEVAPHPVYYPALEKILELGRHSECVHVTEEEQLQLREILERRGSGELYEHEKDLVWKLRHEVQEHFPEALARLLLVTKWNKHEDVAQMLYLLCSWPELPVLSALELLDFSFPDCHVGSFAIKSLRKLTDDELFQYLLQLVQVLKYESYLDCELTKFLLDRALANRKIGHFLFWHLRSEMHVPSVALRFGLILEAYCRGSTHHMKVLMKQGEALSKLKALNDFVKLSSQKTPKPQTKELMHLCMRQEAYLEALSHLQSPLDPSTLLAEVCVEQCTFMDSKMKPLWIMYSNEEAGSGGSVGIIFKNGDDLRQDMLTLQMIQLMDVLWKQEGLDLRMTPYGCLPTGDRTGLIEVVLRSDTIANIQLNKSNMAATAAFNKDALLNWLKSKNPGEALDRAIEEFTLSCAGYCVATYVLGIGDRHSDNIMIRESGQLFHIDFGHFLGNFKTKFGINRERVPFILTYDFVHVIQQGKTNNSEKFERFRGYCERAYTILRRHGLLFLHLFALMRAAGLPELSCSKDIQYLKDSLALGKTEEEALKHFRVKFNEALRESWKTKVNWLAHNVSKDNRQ
T1 sequence (P27986 whole entry partner): as the sequence (P27986 whole entry partner, species assumed) above

SMILES: COc1ccc(C(O)c2cc(-c3cnnc4cc(N5CCOCC5)ccc34)c(F)cc2Cl)nn1 (centres unmarked) [Embodiment 3]
IC50 [1]: 0.132 µM
IC50 [2]: 0.509 µM
IC50 [3]: 0.0035 µM
Tlast ([4]; IV(1 mg/kg)): 8.00 h
Tlast ([4]; PO(2 mg/kg)): 8.00 h
bioavailability ([4]; PO(2 mg/kg)): 48.2%
AUC(0-t) ([4]; IV(1 mg/kg)): 1.85 µM·h
C0 ([4]; IV(1 mg/kg)): 1260 nM
clearance ([4]; IV(1 mg/kg)): 17.9 mL/min/kg
half-life ([4]; IV(1 mg/kg)): 1.27 h
Vd ([4]; IV(1 mg/kg)): 1.42 L/kg
AUC(0-t) ([4]; PO(2 mg/kg)): 1.79 µM·h
Cmax ([4]; PO(2 mg/kg)): 459 nM
half-life ([4]; PO(2 mg/kg)): 2.83 h
Tmax ([4]; PO(2 mg/kg)): 0.5 h

SMILES: COc1ccc(C(O)c2cc(-c3cc(N)nc4cc(N5CCOCC5)ccc34)c(F)cc2Cl)nn1 (single isomer, unassigned) [Embodiment 12]
IC50 [3]: 0.657 µM

SMILES: COc1ccc(C(O)c2cc(-c3cnnc4c(F)c(N5CCOCC5)cc(F)c34)c(F)cc2Cl)nn1 (single isomer, unassigned) [Embodiment 20]
IC50 [3]: 0.136 µM

SMILES: COc1ccc(C(O)c2cc(-c3ccnc4c(F)c(N5CCOCC5)cc(F)c34)c(F)cc2Cl)nn1 (single isomer, unassigned) [Embodiment 22]
IC50 [1]: 0.047 µM
IC50 [2]: 0.043 µM
IC50 [3]: 0.0008 µM
Tlast ([4]; IV(1 mg/kg)): 8.00 h
Tlast ([4]; PO(2 mg/kg)): 8.00 h
bioavailability ([4]; PO(2 mg/kg)): 50%
AUC(0-t) ([4]; IV(1 mg/kg)): 1.98 µM·h
C0 ([4]; IV(1 mg/kg)): 1380 nM
clearance ([4]; IV(1 mg/kg)): 15.4 mL/min/kg
half-life ([4]; IV(1 mg/kg)): 1.89 h
Vd ([4]; IV(1 mg/kg)): 2.32 L/kg
AUC(0-t) ([4]; PO(2 mg/kg)): 1.98 µM·h
Cmax ([4]; PO(2 mg/kg)): 456 nM
half-life ([4]; PO(2 mg/kg)): 6.25 h
Tmax ([4]; PO(2 mg/kg)): 1 h

SMILES: COc1ccc(C(O)c2cc(-c3cc(N)nc4cc(N5CCOCC5)ccc34)c(F)cc2Cl)nn1 (centres unmarked) [Embodiment 11]
IC50 [3]: 0.0047 µM

SMILES: COc1ccc(C(O)c2cc(-c3cc(C(F)F)nc4cc(N5CCOCC5)ccc34)c(F)cc2Cl)nn1 (single isomer, unassigned) [Embodiment 16]
IC50 [3]: 4.25 µM

SMILES: COc1cc([C@@H]2c3cc4c(cc3[C@@H](O[C@@H]3O[C@@H]5CO[C@@H](C)O[C@H]5[C@H](O)[C@H]3O)[C@H]3COC(=O)[C@H]23)OCO4)cc(OC)c1O [Etoposide, etoposide, reference compound]
RTV (24th day) [5]: 6.09 ± 0.85
T/C (%) (24th day) [5]: 75.6%
TGI (%) (24th day) [5]: 33.4%
Tumor volume (mm^3) (0th day) ([5]; average ± SEM, n = 9): 114 ± 9 mm^3
Tumor volume (mm^3) (24th day) ([5]; average ± SEM, n = 9): 654 + 48 mm^3

SMILES: Cc1nccnc1C(O)c1cc(-c2ccnc3c(F)c(N4CCOCC4)cc(F)c23)c(F)cc1Cl (single isomer, unassigned) [Embodiment 24]
IC50 [3]: 0.0057 µM

SMILES: COc1ccc(C(O)c2cc(-c3ccnc4c(Cl)c(N5CCOCC5)ccc34)c(F)cc2Cl)nn1 (single isomer, unassigned) [Embodiment 6]
IC50 [3]: 0.008 µM

SMILES: COc1ccc(C(O)c2cc(-c3cc(C(F)F)nc4cc(N5CCOCC5)ccc34)c(F)cc2Cl)nn1 (single isomer, unassigned) [Embodiment 15]
IC50 [3]: 0.071 µM

SMILES: COc1ccc(C(O)c2cc(-c3cc(N)nc4cc(N5CCOCC5)cc(F)c34)c(F)cc2Cl)nn1 (single isomer, unassigned) [Embodiment 14]
IC50 [3]: 0.0027 µM

SMILES: COc1ccc(C(O)c2cc(-c3cc(N)nc4cc(N5CCOCC5)cc(F)c34)c(F)cc2Cl)nn1 (centres unmarked) [Embodiment 13]
IC50 [3]: 0.141 µM

SMILES: COc1ccc(C(O)c2cc(-c3cnnc4cc(N5CCOCC5)ccc34)c(F)cc2Cl)nn1 (single isomer, unassigned) [Embodiment 4]
IC50 [3]: 0.587 µM

SMILES: COc1ccc(C(O)c2cc(-c3cc(N)nc4c(F)c(N5CCOCC5)ccc34)c(F)cc2Cl)nn1 (single isomer, unassigned) [Embodiment 9]
IC50 [3]: 0.84 µM

The remaining compounds from weak to strong by IC50 [3], led by results:

IC50 [3]: 13.1 µM
SMILES: COc1ccc(C(O)c2cc(-c3cc(OC)nc4cc(N5CCOCC5)ccc34)c(F)cc2Cl)nn1 (single isomer, unassigned) [Embodiment 25]

IC50 [3]: 0.307 µM
SMILES: COc1ccc(C(O)c2cc(-c3ccnc4c(Cl)c(N5CCOCC5)ccc34)c(F)cc2Cl)nn1 (single isomer, unassigned) [Embodiment 5]

IC50 [3]: 0.138 µM
SMILES: COc1ccc(C(O)c2cc(-c3cnnc4c(F)c(N5CCOCC5)ccc34)c(F)cc2Cl)nn1 (single isomer, unassigned) [Embodiment 8]

IC50 [3]: 0.082 µM
SMILES: COc1ccc(C(O)c2cc(-c3ccnc4cc(N5CCOCC5)ccc34)c(F)cc2Cl)nn1 (single isomer, unassigned) [Embodiment 1]

IC50 [3]: 0.076 µM
SMILES: COc1ccc(C(O)c2cc(-c3ccnc4c(F)c(N5CCOCC5)cc(F)c34)c(F)cc2Cl)nn1 (single isomer, unassigned) [Embodiment 21]

IC50 [3]: 0.033 µM
SMILES: Cc1nccnc1C(O)c1cc(-c2cnnc3c(F)c(N4CCOCC4)cc(F)c23)c(F)cc1Cl (single isomer, unassigned) [Embodiment 18]

IC50 [3]: 0.015 µM
SMILES: Cc1nccnc1C(O)c1cc(-c2cnnc3c(F)c(N4CCOCC4)cc(F)c23)c(F)cc1Cl (centres unmarked) [Embodiment 17]

IC50 [3]: 0.0087 µM
SMILES: Cc1nccnc1C(O)c1cc(-c2ccnc3c(F)c(N4CCOCC4)cc(F)c23)c(F)cc1Cl (centres unmarked) [Embodiment 23]

IC50 [3]: 0.0015 µM
SMILES: COc1ccc(C(O)c2cc(-c3cnnc4c(F)c(N5CCOCC5)ccc34)c(F)cc2Cl)nn1 (centres unmarked) [Embodiment 7]

IC50 [3]: 0.0005 µM
SMILES: COc1ccc(C(O)c2cc(-c3cc(N)nc4c(F)c(N5CCOCC5)ccc34)c(F)cc2Cl)nn1 (single isomer, unassigned) [Embodiment 10]
